Earlier results, collected in patent publication US20050020589A1, “Sustained-release tablet composition comprising a dopamine receptor agonist” (Pfizer Inc., priority 2003, published 2005).

Solubility: highly soluble
Substance: (R)-5,6-dihydro-5-(methylarnino)-4H-imidazo[4,5-ij]-quinolin-2(1H)-one (Z)-2-butenedioate (1:1) [maleate salt of sumanirole]
